Consider 20 compounds from ChEMBL document CHEMBL1138057, “Synthesis and structure-activity relationships of N-{3-[2-(4-alkoxyphenoxy)thiazol-5-yl]-1- methylprop-2-ynyl}carboxy derivatives as selective acetyl-CoA carboxylase 2 inhibitors” (J Med Chem, 2006).

One may read the IC50 as the concentration needed to halve the response being measured. Usually AUC stands for the area under the concentration-time curve, a measure of exposure. The bioavailability is dose-corrected exposure relative to a reference, in per cent. Broadly, the Tmax is the time at which the peak concentration occurs. A word on the half-life: it is how long it takes for the measured level to halve. Broadly, the Cmax is the maximum level reached in the sampled fluid or tissue. A word on the clearance: it is the volume of plasma or blood freed of the substance per unit of time.

Structures are written as SMILES. Active and inactive are the calls of the source. The calls are words filed in the database; no cut-off is given here. Where only a bound is given, the exact number is not on record here.

Data set [1] concerns the target Acetyl-CoA carboxylase 1 (Homo sapiens, UniProt Q13085). The data set is described as follows: Inhibition of human recombinant ACC1 expressed in HEK293 cells. Format: cell-based.
Data set [2] deals with Acetyl-CoA carboxylase 2 (Homo sapiens, UniProt O00763). The data set is described as follows: Inhibition of human recombinant ACC2 expressed in baculovirus/sf9 system.
Chain of Acetyl-CoA carboxylase 2 (O00763 whole entry): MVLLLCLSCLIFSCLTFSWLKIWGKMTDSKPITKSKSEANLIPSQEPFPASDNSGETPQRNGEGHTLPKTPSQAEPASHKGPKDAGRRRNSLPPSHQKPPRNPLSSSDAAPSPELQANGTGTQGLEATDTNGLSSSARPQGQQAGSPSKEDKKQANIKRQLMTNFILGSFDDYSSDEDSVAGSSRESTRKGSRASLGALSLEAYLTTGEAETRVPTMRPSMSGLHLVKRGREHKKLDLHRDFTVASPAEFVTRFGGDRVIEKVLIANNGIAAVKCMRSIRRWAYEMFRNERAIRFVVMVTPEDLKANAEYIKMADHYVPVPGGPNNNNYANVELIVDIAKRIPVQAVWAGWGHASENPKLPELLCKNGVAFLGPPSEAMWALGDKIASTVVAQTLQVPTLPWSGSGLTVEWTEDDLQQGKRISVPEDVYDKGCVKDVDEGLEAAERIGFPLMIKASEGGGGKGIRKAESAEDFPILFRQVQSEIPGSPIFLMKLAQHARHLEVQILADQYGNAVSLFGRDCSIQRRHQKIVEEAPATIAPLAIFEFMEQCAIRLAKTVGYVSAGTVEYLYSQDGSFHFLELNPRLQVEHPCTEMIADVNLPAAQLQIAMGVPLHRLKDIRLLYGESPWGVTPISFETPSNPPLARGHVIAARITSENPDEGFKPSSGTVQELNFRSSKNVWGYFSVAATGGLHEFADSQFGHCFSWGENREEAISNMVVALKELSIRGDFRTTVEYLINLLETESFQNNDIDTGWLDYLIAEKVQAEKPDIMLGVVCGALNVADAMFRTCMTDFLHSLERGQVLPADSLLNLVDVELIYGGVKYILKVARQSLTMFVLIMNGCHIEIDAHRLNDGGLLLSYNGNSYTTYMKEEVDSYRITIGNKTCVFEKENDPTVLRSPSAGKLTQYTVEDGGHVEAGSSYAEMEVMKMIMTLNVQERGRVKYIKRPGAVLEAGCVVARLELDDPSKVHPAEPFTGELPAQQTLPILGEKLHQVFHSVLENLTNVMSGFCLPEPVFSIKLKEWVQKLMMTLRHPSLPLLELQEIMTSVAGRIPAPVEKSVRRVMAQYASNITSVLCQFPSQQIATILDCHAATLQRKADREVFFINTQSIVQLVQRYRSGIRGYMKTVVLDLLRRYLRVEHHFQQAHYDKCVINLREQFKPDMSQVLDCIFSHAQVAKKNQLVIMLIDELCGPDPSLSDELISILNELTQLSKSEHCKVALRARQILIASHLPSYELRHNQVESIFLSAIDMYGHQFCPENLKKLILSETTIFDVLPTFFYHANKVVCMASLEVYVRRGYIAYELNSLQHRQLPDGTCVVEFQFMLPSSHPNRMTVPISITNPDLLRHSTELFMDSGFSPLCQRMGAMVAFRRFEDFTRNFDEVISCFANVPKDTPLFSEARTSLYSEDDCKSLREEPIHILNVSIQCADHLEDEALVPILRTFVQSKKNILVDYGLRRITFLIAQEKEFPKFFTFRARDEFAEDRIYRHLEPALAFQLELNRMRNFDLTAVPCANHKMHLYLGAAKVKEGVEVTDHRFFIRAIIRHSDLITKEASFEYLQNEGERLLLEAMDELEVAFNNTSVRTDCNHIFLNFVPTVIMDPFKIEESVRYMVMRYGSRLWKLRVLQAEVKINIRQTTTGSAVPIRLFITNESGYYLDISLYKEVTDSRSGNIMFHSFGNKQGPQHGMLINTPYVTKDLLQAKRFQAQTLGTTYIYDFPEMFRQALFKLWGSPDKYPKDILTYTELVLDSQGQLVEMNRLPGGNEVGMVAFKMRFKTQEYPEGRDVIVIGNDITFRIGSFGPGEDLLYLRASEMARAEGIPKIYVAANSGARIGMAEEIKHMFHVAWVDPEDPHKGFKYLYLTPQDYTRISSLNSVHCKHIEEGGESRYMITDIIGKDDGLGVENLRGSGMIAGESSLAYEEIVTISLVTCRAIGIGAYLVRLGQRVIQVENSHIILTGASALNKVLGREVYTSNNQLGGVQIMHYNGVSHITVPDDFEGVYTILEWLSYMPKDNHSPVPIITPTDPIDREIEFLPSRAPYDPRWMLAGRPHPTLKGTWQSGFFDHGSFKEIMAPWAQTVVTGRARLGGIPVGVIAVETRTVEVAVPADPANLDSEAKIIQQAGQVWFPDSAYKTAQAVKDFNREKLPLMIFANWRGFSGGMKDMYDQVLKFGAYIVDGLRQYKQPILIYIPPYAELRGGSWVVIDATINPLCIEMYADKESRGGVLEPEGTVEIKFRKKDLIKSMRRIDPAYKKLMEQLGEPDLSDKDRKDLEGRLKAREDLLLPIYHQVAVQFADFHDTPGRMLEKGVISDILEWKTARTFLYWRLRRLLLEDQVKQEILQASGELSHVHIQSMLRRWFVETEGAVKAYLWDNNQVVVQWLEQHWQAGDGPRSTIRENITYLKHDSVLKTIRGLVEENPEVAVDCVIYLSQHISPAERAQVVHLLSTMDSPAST
The test system of data set [3] is Rattus norvegicus. Description: Drug concentration in Sprague-Dawley rat plasma at 10 mg/kg. As to conditions: in vivo. More on the design: dose 10 mg/kg. The data set is classed as ADME, organism-based.
In data set [4] the test system is Rattus norvegicus. Description: Reduction of mCoA level in Sprague-Dawley rat liver at 50 mg/kg, po. Format: functional.
The test system of data set [5] is Rattus norvegicus. The data set is described as follows: Reduction of mCoA level in Sprague-Dawley rat liver at 10 mg/kg, po. The arrangement: dose 10 mg/kg. Format: functional, organism-based.
Data set [6] deals with Rattus norvegicus. The data set is described as follows: Drug concentration in Sprague-Dawley rat plasma at 50 mg/kg. Format: ADME, organism-based. As to conditions: in vivo. The arrangement: dose 50 mg/kg.
Data set [7] deals with Rattus norvegicus. Description: Reduction of mCoA level in Sprague-Dawley rat muscle at 10 mg/kg, po. The data set is classed as functional.
Data set [8] deals with Rattus norvegicus. The data set is described as follows: Reduction of mCoA level in Sprague-Dawley rat muscle at 50 mg/kg, po. Format: functional.
Data set [9] in a line: AUC in rat at 5 mg/kg, po. Format: ADME, organism-based. The arrangement: dose 5 mg/kg, route oral. To be noted: plasma.
A short description of data set [10]: Bioavailability in rat at 5 mg/kg. Format: ADME, organism-based. As to conditions: in vivo.
Data set [11] is described as follows: Tmax in rat at 5 mg/kg. Format: ADME, organism-based. More on the design: dose 5 mg/kg. To be noted: in vivo.
Data set [12] can be described thus: Half life in rat at 5 mg/kg, po. Format: ADME, organism-based. The arrangement: dose 5 mg/kg, route oral. As to conditions: in vivo.
Data set [13] is described as follows: Cmax in rat at 5 mg/kg. The data set is classed as ADME, organism-based. The arrangement: dose 5 mg/kg. To be noted: in vivo.
Data set [14] in a line: Plasma clearance in rat at 5 mg/kg. The data set is classed as ADME, organism-based. The arrangement: dose 5 mg/kg.
The nature of data set [15]: Volume of distribution in rat at 5 mg/kg. The data set is classed as ADME, organism-based. The arrangement: dose 5 mg/kg. As to conditions: in vivo, read-out: Vss.

Turning to `CC(=O)NC(C)C#Cc1cnc(Oc2ccc(SC(C)C)cc2)s1` (stereo not drawn), the IC50 in data set [1] is 370 nM; in data set [2], 55 nM.
Take `COC(=O)N[C@H](C)C#Cc1cnc(Oc2ccc(OC(C)C)cc2)s1`: the Cp amounted to 1330 ng/mL in data set [3] and 5330 ng/mL in data set [6]. The values for the IC50 in [1] and in data set [2] were more than 30000 nM and 1510 nM, respectively. Moreover, the result in data set [4], in data set [5], in [7] (Muscle tissue) and in data set [8] (Muscle tissue) was inactive.
As to `CC(=O)NC(C)C#Cc1ccc(Oc2ccc(OC(C)C)cc2)cc1` (stereo not drawn), the IC50 worked out at 29 nM in [1] and 6 nM in [2].
Take `O=C(c1c2ccccc2cc2ccccc12)N1CCC(N2CCC[C@@H](C(=O)N3CCOCC3)C2)CC1`: the values for the IC50 in data set [1] and in data set [2] were 410 nM and 38 nM, respectively.
For the compound `CC(=O)NC(C#Cc1cnc(Oc2ccc(OC(C)C)cc2)s1)C1CC1` (stereo not drawn), the IC50 was more than 30000 nM in data set [1] and 840 nM in [2].
`CC(=O)NC(C)C#Cc1cnc(Oc2ccc(Oc3ccccc3)cc2)s1` (stereo not drawn): the IC50 in [1] came out at 260 nM; in [2], 11 nM.
As for `CC(=O)NC(C)C#Cc1csc(Oc2ccc(OC(C)C)cc2)n1` (stereo not drawn), the IC50 in data set [1] and in data set [2] was more than 30000 nM in each case.
As for `COC(=O)NC(C)C#Cc1cnc(Oc2ccc(OC(C)C)cc2)s1` (stereo not drawn), the IC50 is more than 30000 nM in data set [1] and 96 nM in [2]. In data set [9], this compound showed an AUC of 18900 ng·h/mL. Besides, the bioavailability in data set [10] came to 80.4%. Moreover, the Tmax in [11] was 2 h. The half-life in data set [12] was more than 12 h. Moreover, the concentration in data set [13] peaked (Cmax) at 900 ng/mL. The same compound showed a clearance in data set [14] of 3.33 mL/min/kg. In addition, the Vd in data set [15] was 5 L/kg.
For the compound `CC(C#Cc1cnc(Oc2ccc(Oc3ccccc3)cc2)s1)NC(N)=O` (stereo not drawn), the half-maximal inhibitory concentration (IC50) in [1] was more than 30000 nM; in data set [2] it was 26 nM.
For the compound `CC(C#Cc1cnc(Oc2ccc(Oc3ccccc3)cc2)s1)N(O)C(N)=O` (stereo not drawn), the concentration for half-maximal inhibition (IC50) worked out at 1000 nM in data set [1] and 80 nM in data set [2].
For the compound `CC(=O)NC(C)C#Cc1cnc(Oc2ccc(C(C)C)cc2)s1` (stereo not drawn), the figures for the IC50 in data set [1] and in data set [2] were 1250 nM and more than 30000 nM, respectively.
Consider `CC(=O)NC(C)C#Cc1cnc(Oc2ccc(OC(C)C)nc2)s1` (stereo not drawn), for which the IC50 in [1] came to 390 nM; in data set [2], 15 nM.
The corresponding values for `CC(=O)NC(C)C#Cc1cnc(Oc2ccc(NC(C)C)cc2)s1` (stereo not drawn) are more than 30000 nM and 150 nM.
`CNC(=O)NC(C)C#Cc1cnc(Oc2ccc(OC(C)C)cc2)s1` (stereo not drawn): the figures for the IC50 in [1] and in data set [2] were more than 30000 nM and 30 nM, respectively.
As for `CC(=O)NC(C)C#Cc1cnc(Sc2ccc(OC(C)C)cc2)s1` (stereo not drawn), the IC50 in data set [1] is more than 30000 nM; in [2], 69 nM.
For `CC(=O)NC(C)C#Cc1cnc(Oc2ccc(OC(C)C)cc2)s1` (stereo not drawn), the IC50 in [1] is more than 30000 nM; in data set [2], 19 nM.
In the case of `COC(=O)N[C@@H](C)C#Cc1cnc(Oc2ccc(OC(C)C)cc2)s1`, the Cp came out at 1540 ng/mL in [3] and 4900 ng/mL in data set [6]. Moreover, the IC50 was more than 30000 nM in [1] and 38 nM in data set [2]. The Activity in data set [4] is recorded as 26%; in [7] it was 36%; in [8] it was 54%.
Consider `CC(N)C#Cc1cnc(Oc2ccc(Oc3ccccc3)cc2)s1` (stereo not drawn), for which the IC50 in [1] is more than 30000 nM; in [2], 2420 nM.
The corresponding values for `CC(O)C#Cc1cnc(Oc2ccc(Oc3ccccc3)cc2)s1` (stereo not drawn) are more than 30000 nM and 600 nM.
The corresponding values for `CC(=O)NCC#Cc1cnc(Oc2ccc(OC(C)C)cc2)s1` are more than 30000 nM and 1730 nM.
